{"source": "patent US20220289788A1", "about": "“3-HYDROXY-5-PREGNANE-20-ONE DERIVATIVE AND USE THEREOF” (priority 2019, published 2022)", "key": {"[1]": {"experiment": "Pharmacokinetic testing after single oral administration, allopregnanolone detected in plasma", "format": "in vivo", "settings": "male SD rats, i.g. 20 mg/kg (as allopregnanolone)", "from_the_text": "The object of this experiment is to study the single oral administration of each compound solution of the present invention, and an allopregnanolone solution, to detect allopregnanolone, an active ingredient in plasma, and to evaluate its pharmacokinetic (PK) properties in SD rats. The solution was to dissolve each compound in an aqueous solution containing 5% Tween 20.\nThe male SD rats used in this embodiment, weighing 180-220 g, were purchased from Shanghai SLAC Laboratory Animal Co., Ltd. All animals were fasted overnight, until 4 hours after administration.\nThe experimental SD rats were grouped by randomized block design, and 5 rats in each group, namely allopregnanolone group, compound 1 hydrochloride group, compound 2 hydrochloride group, compound 14 hydrochloride group, and compound 15 hydrochloride group. Each group was administered by irrigation (i.g.) at a dose of 20 mg/kg (as measured by allopregnanolone).\n0.0833 h, 0.25 h, 0.5 h, 1 h, 2 h, 3 h, 4 h, 6 h, 9 h, 12 h, 24 h after the administration, about 0.6 mL of blood sample was collected from peripheral veins and transferred to a commercial centrifuge tube containing 0.85 to 1.15 mg of K2 EDTA anticoagulant (Jiangsu Kangjian Medical Products Co., Ltd.). Within 30 minutes after blood collection, plasma was centrifuged (centrifugation at 3,000 g for 10 minutes at approximately 4° C.). The plasma was placed in a labeled polypropylene tube, quick-frozen in dry ice, then stored in an ultra-low temperature freezer at −60° C. or lower for testing. LC-MS/MS bioassay was used to detect the concentration of drug in SD rat plasma. Blood concentration-time data was analyzed using a non-compartment model and a WinNonlin software package (version6.3 or later), as shown in Table-3."}, "[2]": {"settings": "cited from earlier work"}, "physchem": {"experiment": "physchem", "settings": "25 °C, thermodynamic from solid", "procedure": "An appropriate amount of the compound of the present invention was weighed, prepared into solutions with different media, respectively, stirred in a constant temperature water bath magnetometer at 25° C. for about 24 hours, and filtered through a 0.22 μm water filter membrane. An appropriate amount of filtrate was diluted to a certain concentration with methanol, and used as a test solution. The concentration of the test solution was determined by HPLC with a UV detector using methanol as a blank control solution.\n(2) Reference solution: 5 mg of reference substance was weighed precisely, placed in a 10 mL measuring flask, dissolved with methanol and diluted to scale, and mixed well.\n(3) Sample solution: An appropriate amount of sample solution was pipetted, diluted with methanol to about 0.5 mg/mL (determined by the concentration of each sample), and mixed well."}, "[3]": {"experiment": "Stability of compound in 5% glucose solution (HPLC purity over time)", "format": "physicochemical", "settings": "about 1 mg/g, room temperature", "method": "An appropriate amount of the derivative of the present invention was weighed respectively, dissolved in a 5% glucose solution and prepared into a solution with a concentration of about 1 mg/g.\n(1) Blank solution: Methanol.\n(2) Sample solution: A suitable solution was taken and filtered through a 0.22 μm filter membrane."}, "[4]": {"settings": "pH 4.5 buffer solution, pH 4.5, aqueous buffer"}}, "note": "Where a name gives a salt, the structure may show the parent alone.", "data": [{"smiles": "CC(=O)[C@H]1CC[C@H]2[C@@H]3CC[C@H]4C[C@H](O)CC[C@]4(C)[C@H]3CC[C@]12C", "note": "[Allopregnanolone, allopregnanolone, reference compound]", "values": [{"measurement": "AUC0-last", "setting": "[1]", "result": 24.9, "unit": "ng′ hours/mL"}, {"measurement": "human plasma half-life period", "setting": "[2]", "result": "about 45 minutes"}]}, {"smiles": "CC(=O)[C@H]1CCC2[C@@H]3CCC4CC(OC(=O)C(NC(=O)CN)C(C)C)CC[C@]4(C)C3CC[C@@]21C", "note": "(stereo partly drawn) [Compound 2 hydrochloride]", "values": [{"measurement": "AUC0-last", "setting": "[1]", "result": 196.0, "unit": "ng′ hours/mL"}, {"measurement": "solubility at 24 h", "setting": "physchem; [4]", "result": "> 10000", "unit": "µg/mL"}, {"measurement": "solubility at 24 h", "setting": "physchem; water", "result": "> 10000", "unit": "µg/mL"}, {"measurement": "Purity", "setting": "[3]; 0 hour", "result": 95.00, "unit": "%"}, {"measurement": "Purity", "setting": "[3]; 1 hour", "result": 94.59, "unit": "%"}, {"measurement": "Purity", "setting": "[3]; 3 hours", "result": 94.50, "unit": "%"}, {"measurement": "Purity", "setting": "[3]; 5 hours", "result": 94.05, "unit": "%"}, {"measurement": "Purity", "setting": "[3]; 8 hours", "result": 94.33, "unit": "%"}]}, {"smiles": "CC(=O)[C@H]1CCC2[C@@H]3CCC4CC(OC(=O)C(NC(=O)C5CCCN5)C(C)C)CC[C@]4(C)C3CC[C@@]21C", "note": "(stereo partly drawn) [Compound 4 hydrochloride]", "values": [{"measurement": "solubility at 24 h", "setting": "physchem; water", "result": 190, "unit": "µg/mL"}]}, {"smiles": "CC(=O)[C@H]1CCC2[C@@H]3CCC4CC(OC(=O)C(NC(=O)C(N)Cc5c[nH]c6ccccc56)C(C)C)CC[C@]4(C)C3CC[C@@]21C", "note": "(stereo partly drawn) [Compound 5 hydrochloride]", "values": [{"measurement": "solubility at 24 h", "setting": "physchem; water", "result": 70, "unit": "µg/mL"}]}, {"smiles": "CC(=O)[C@H]1CC[C@H]2[C@@H]3CC[C@H]4C[C@H](OC(=O)[C@@H](NC(=O)C(C)N)C(C)C)CC[C@]4(C)[C@H]3CC[C@]12C", "note": "(stereo partly drawn) [Compound 6 hydrochloride]", "values": [{"measurement": "solubility at 24 h", "setting": "physchem; water", "result": 5680, "unit": "µg/mL"}]}, {"smiles": "CC(=O)[C@H]1CC[C@H]2[C@@H]3CC[C@H]4CC(OC(=O)C(NC(=O)C(N)CC(C)C)C(C)C)CC[C@]4(C)[C@H]3CC[C@]12C", "note": "(stereo partly drawn) [Compound 7 hydrochloride]", "values": [{"measurement": "solubility at 24 h", "setting": "physchem; water", "result": 7380, "unit": "µg/mL"}]}, {"smiles": "CC(=O)[C@H]1CC[C@H]2[C@@H]3CC[C@H]4C[C@H](OC(=O)[C@H](C)NC(=O)[C@@H](N)C(C)C)CC[C@]4(C)[C@H]3CC[C@]12C", "note": "[Compound 10 hydrochloride]", "values": [{"measurement": "Purity", "setting": "[3]; 0 hour", "result": 99.12, "unit": "%"}, {"measurement": "Purity", "setting": "[3]; 1 hour", "result": 99.09, "unit": "%"}, {"measurement": "Purity", "setting": "[3]; 3 hours", "result": 99.04, "unit": "%"}, {"measurement": "Purity", "setting": "[3]; 5 hours", "result": 98.05, "unit": "%"}, {"measurement": "Purity", "setting": "[3]; 8 hours", "result": 97.89, "unit": "%"}]}, {"smiles": "CC(=O)[C@H]1CC[C@H]2[C@@H]3CC[C@H]4C[C@H](OC(=O)[C@H](C)NC(=O)CN)CC[C@]4(C)[C@H]3CC[C@]12C", "note": "[Compound 12 hydrochloride]", "values": [{"measurement": "solubility at 24 h", "setting": "physchem; [4]", "result": 1910, "unit": "µg/mL"}, {"measurement": "solubility at 24 h", "setting": "physchem; water", "result": 2620, "unit": "µg/mL"}]}, {"smiles": "CC(=O)[C@H]1CC[C@H]2[C@@H]3CC[C@H]4C[C@H](OC(=O)[C@H](C)OC(=O)[C@@H](N)C(C)C)CC[C@]4(C)[C@H]3CC[C@]12C", "note": "[Compound 13 hydrochloride]", "values": [{"measurement": "solubility at 24 h", "setting": "physchem; [4]", "result": 10, "unit": "µg/mL"}, {"measurement": "solubility at 24 h", "setting": "physchem; water", "result": 370, "unit": "µg/mL"}]}, {"smiles": "CC(=O)[C@H]1CC[C@H]2[C@@H]3CC[C@H]4C[C@H](OC(=O)CNC(=O)[C@@H](N)C(C)C)CC[C@]4(C)[C@H]3CC[C@]12C", "note": "[Compound 14 hydrochloride]", "values": [{"measurement": "AUC0-last", "setting": "[1]", "result": 150.2, "unit": "ng′ hours/mL"}, {"measurement": "solubility at 24 h", "setting": "physchem; [4]", "result": "> 50000", "unit": "µg/mL"}, {"measurement": "solubility at 24 h", "setting": "physchem; water", "result": "> 10000", "unit": "µg/mL"}]}, {"smiles": "CC(=O)[C@H]1CC[C@H]2[C@@H]3CC[C@H]4C[C@H](OC(=O)CNC(=O)CN)CC[C@]4(C)[C@H]3CC[C@]12C", "note": "[Compound 15 hydrochloride]", "values": [{"measurement": "AUC0-last", "setting": "[1]", "result": 166.3, "unit": "ng′ hours/mL"}, {"measurement": "solubility at 24 h", "setting": "physchem; water", "result": 1110, "unit": "µg/mL"}]}, {"smiles": "CC(=O)[C@H]1CC[C@H]2[C@@H]3CC[C@H]4C[C@H](OC(=O)CNC(=O)[C@H](C)N)CC[C@]4(C)[C@H]3CC[C@]12C", "note": "[Compound 23 hydrochloride]", "values": [{"measurement": "solubility at 24 h", "setting": "physchem; [4]", "result": 970, "unit": "µg/mL"}, {"measurement": "solubility at 24 h", "setting": "physchem; water", "result": 640, "unit": "µg/mL"}]}]}
